Measured values published in patent publication US20100056443A1, “RADIOPHARMACEUTICAL TO BE USED IN DISTINCTION BETWEEN INFLAMMATIONS AND INFECTIONS IN ORTHOPAEDIC IMPLANTS” (priority 2006, published 2010).
No end group written: not given here.

Tests used:
Escherichia Coli = conditions: cited from earlier work
Gram-negative bacteria = conditions: in words; HBD-3: P. Aeruginosa, E. Coli; cited from earlier work
[1] = test system: Gram-positive bacteria (Streptococcus pyogenes, S. Aureus); conditions: in words; including multi-resistant S. aureus and vancomycin-resistant Enterococcus Faecium; cited from earlier work
yeasts = conditions: in words; b28: yeast C. albicans; cited from earlier work
P. aeruginosa = conditions: strong antimicrobial activity; cited from earlier work
S. cerevisiae = conditions: weak antimicrobial activity; cited from earlier work
S. Carnosous = conditions: strong antimicrobial activity; cited from earlier work
S. pneumoniae = conditions: weak antimicrobial activity; cited from earlier work
S. Aureus [2] = conditions: weak antimicrobial activity; cited from earlier work
B. cepacea = conditions: weak antimicrobial activity; cited from earlier work
[3] = test system: Gram-positive and Gram-negative bacteria; conditions: cited from earlier work
E. Coli = assay: In vitro control of the biological activity of radiomarked HBD-3 (colony count on agar plates); assay type: cell-based; conditions: for Number of CFU existing in the plates: E. Coli
Description: (§1) The control was performed as described by Harwing et al. Methods Enzymology 1994, 236: 160-172. In particular, the aliquote portion (20 μl) of a bacterial suspension of S. Aureus containing 5×10^6 CFU/ml was incubated (2 hours at 37° C.) with 200 μl of radiomarked HBD-3 (1.2 μg) and 75 μl of a suitable dilution of a culture broth (Tryptic Soy Broth). After incubation, two samples with dilution factors equalling to 1:1345 and 1:13450 were derived from the mixture. Twentyfive μl of these samples were collected and sown with sterile rod onto plates containing a culture medium (agar plate). After incubation for 24 hours at 37° C. the colonies were counted. A value higher than 800 CFU was considered not assessable due to the difficulty in counting.
(§2) An analogous experiment was carried out, under the same conditions, by using 200 μl of sterile buffer instead of the radiomarked HBD-3.
Both tests illustrated above, aimed at testing the sensibility of S. Aureus to the radiomarked HBD-3, were repeated, under identical conditions, with E. Coli with the same purposes. The results are shown in Table III and in FIGS. 1 and 2.

S. Aureus [4] = assay: as above; assay type: cell-based; conditions: for Number of CFU existing in the plates: S. Aureus, 1.2 μg radiomarked HBD-3, 2 hours at 37° C.
Description: as §1, §2

infection by S. Aureus = assay: Infection detection by 99mTc-HBD-3 in experimental animal model (tissue counting: infection vs sterile inflammation vs normal muscle); assay type: in vivo, Wistar male rats
Description: Tissue samples were collected from the infection and inflammation seats after 1, 3 and 5 hours as from the injection of the tracer for each group of rats. Such samples were counted in a well-like counter. The countings expressed in terms of cpm/g of tissue were compared to the countings of properly collected normal muscle tissue samples. […] The results have been interpreted as indicating a specific bond of radiomarked recombinant HBD-3 with the S. Aureus.
The rats Nr. 3, 6 and 9 had received a weight dose in marked product higher than the rats Nr. 2, 5 and 8 which, in turn, had received a dose of the same product higher than the rats 1, 4 and 7. As it can be seen, a greater ratio between countings measured onto the abscess seat and those recorded onto the inflammation seat and onto the normal muscle corresponds to a higher dose of radiomarked peptide. Such run lets assuming a dose-depending ratio of dependency of the radiopharmaceutical captation.

[5] = dilution 1:1345, >800 CFU not assessable

HBD-1: human β-defensin, constitutive expression (DHYNCVSSGGQCLYSACPIFTKIQGTCYRGKAKCCK; UniProt P60022 33-68, looked up)
Activity (Escherichia Coli; at micro-molecular concentrations): Bactericide*

HBD-3: human beta-defensin-3, antimicrobial peptide weighing 5,15 kDa (GIINTLQKYYCRVRGGRCAVLSCLPKEEQIGKCSTRGRKCCRRKK; Beta-defensin 103; UniProt P81534 23-67, looked up)
Activity (Gram-negative bacteria): Bactericide | Activity [1]: Bactericide | Activity (yeasts): Bactericide

HBD-4: human β-defensin, constitutive expression (EFELDRICGYGTARCRKKCRSQEYRIGRCPNTYACCLRKWDESLLNRTKP; UniProt Q8WTQ1 23-72, looked up)
MIC (P. aeruginosa): (MIC = 4.1 μg/ml) | MIC (S. cerevisiae): (MIC > 100 μg/ml); | MIC (Escherichia Coli; weak antimicrobial activity): (MIC > 100 μg/ml); | MIC (S. Carnosous): (MIC = 4.5 μg/ml) | MIC (S. pneumoniae): (MIC > 100 μg/ml); | MIC (S. Aureus [2]): (MIC > 100 μg/ml); | MIC (B. cepacea): (MIC > 100 μg/ml);

HNP-1: human α-defensin inside neutrophils
Bactericide concentrations ([3]; Gram-positive and Gram-negative bacteria): greater than 100 μl;

HNP-2: truncated human α-defensin (CYCRIPACIAGERRYGTCIYQGRLWAFCC; Neutrophil defensin 2; UniProt P59665 66-94, looked up)
Activity ([3]; in words, relative to HNP-1): Like HPN-1

radiomarked HBD-3: recombinant human β-defensin-3 marked with 99mTc+ exa-coordinated with 3 molecules of CO and H2O (GIINTLQKYYCRVRGGRCAVLSCLPKEEQIGKCSTRGRKCCRRKK; cysteine pairing not given here; also: 99mTc(CO)3 label, site not given here; UniProt P81534 23-67, looked up)
Number of CFU existing in the plates (E. Coli; [5]): >800 CFU | Number of CFU existing in the plates (E. Coli; dilution 1:13450): 310 CFU | biological activity of HBD-3 after marking with 99mTc (E. Coli; towards E. Coli (lower than towards S. Aureus)): maintained biological activity | Number of CFU existing in the plates (S. Aureus [4]; [5]): 348 CFU | Number of CFU existing in the plates (S. Aureus [4]; dilution 1:13450): 17 CFU | biological activity of HBD-3 after marking with 99mTc (S. Aureus [4]; towards S. Aureus (greater than towards E. Coli)): maintained biological activity | tracer's captation in the infection seats relative to the inflammation seats (infection by S. Aureus; rats, 5 hours as from the tracer's injection, cpm/g of tissue): 3 times | fixation of tracer, inflammatory lesions versus normal muscles (infection by S. Aureus; rats, in the whole experiment (1, 3 and 5 hours)): no significant fixation differences | tracer's captation, infection seats versus inflammation seats (infection by S. Aureus; rats, one hour as from the injection): no significant differences | dependency of the radiopharmaceutical captation ratio (abscess vs inflammation seat and normal muscle) on dose (infection by S. Aureus; single rats 1-9, doses from 1,6 to 5,2 μg): dose-depending
